{"source": "paper doi:10.1101/2021.03.15.435551", "about": "“Discovery of SARS-CoV-2 papain-like protease inhibitors through a combination of high-throughput screening and FlipGFP-based reporter assay” (bioRxiv, 2021)", "key": {"[1]": {"target": "T1, SARS-CoV-2 PL^pro (PL^pro; PL^pro-His) (Severe acute respiratory syndrome coronavirus 2, UniProt P0DTD1)", "T1 construct": "gene rep", "assay": "FRET peptide cleavage assay", "format": "biochemical", "settings": "Dabcyl-FTLRGG/APTKV-Edans substrate, 200 nM PLpro"}, "[2]": {"target": "T2, SARS-CoV-2 PL^pro (pcDNA3.1 SARS2 PL^pro, FlipGFP assay) (Severe acute respiratory syndrome coronavirus 2, UniProt P0DTD1)", "T2 construct": "gene rep", "assay": "FlipGFP-PLpro reporter assay", "format": "cell-based", "settings": "GFP/mCherry ratio, 48 h"}, "SARS-CoV-2 M^pro": {"target": "T3, SARS-CoV-2 M^pro (Severe acute respiratory syndrome coronavirus 2, UniProt P0DTD1)", "T3 construct": "gene rep", "assay": "Mpro FRET peptide assay", "format": "biochemical", "settings": "pH 6.5; Dabcyl-KTSAVLQ/SGFRKME(Edans) substrate"}}, "data": [{"compound": "CC(c1cc(F)ccc1F)N(C)Cc1cc(O)ccc1Cl", "note": "(centres unmarked) [Jun9-29-5]", "values": [{"measurement": "IC50", "setting": "[1]", "value": "> 20000", "unit": "nM"}]}, {"compound": "Cc1ccc(N)cc1CN(C)[C@H](C)c1cccc2ccccc12", "note": "[Jun9-53-2]", "values": [{"measurement": "IC50", "setting": "[1]", "value": 890, "unit": "nM"}]}, {"compound": "C[C@H](c1cccc2ccccc12)N(C)Cc1cccc2[nH]ccc12", "note": "[Jun9-75-4]", "values": [{"measurement": "IC50", "setting": "[1]", "value": 620, "unit": "nM"}]}, {"compound": "Jun9-75-5", "values": [{"measurement": "EC50", "setting": "[2]", "value": "> 60000", "unit": "nM"}, {"measurement": "IC50", "setting": "[1]", "value": 560, "unit": "nM"}]}, {"compound": "C[C@H](c1ccc(Cl)cc1)N(C)Cc1cc(O)ccc1Cl", "note": "[Jun9-13-4]", "values": [{"measurement": "IC50", "setting": "[1]", "value": "> 20000", "unit": "nM"}]}, {"compound": "CC(c1ccccc1Cl)N(C)Cc1cc(O)ccc1Cl", "note": "(centres unmarked) [Jun9-13-7]", "values": [{"measurement": "IC50", "setting": "[1]", "value": "7290 ± 1030", "unit": "nM"}, {"measurement": "inhibition at up to 200 μM", "setting": "SARS-CoV-2 M^pro", "value": "> 200", "unit": "µM"}]}]}
